# Where two headings read alike, the source gives them in different places.
# Experiments:
# [1] = system: men with T1DM and healthy men; assay type: in vivo, human
# [2] = system: human subcutaneous primary preadipocytes; assay type: cell-based; conditions: for reduction of basal and insulin-stimulated glucose uptake: dose-dependent, exposure during differentiation
# [3] = system: patients with type 2 diabetes; assay type: in vivo, human; conditions: Ipr 50 mg or Met 1000 mg, 24 weeks, n=15 per group
# [4] = system: adult participants, liver steatosis by VCTE; conditions: multivariable adjusted
# patients with T2D = assay type: in vivo, human; conditions: for change in LVEF with acipimox: resting
# human delta cells = assay type: cell-based
# [5] = system: β-cells from Ins2GFP knock-in mice; assay type: cell-based, mouse
# [6] = system: individuals with prediabetes; conditions: 2 weeks
# T2DM and NGT subjects = conditions: for EGP after drug: 10 mg single dose, 4 hours; for increase in renal glucose production (RGP): non-significant
# [7] = system: skeletal muscle of type 2 diabetes patients; conditions: 5 weeks
# patients with T2DM = assay type: in vivo, human; conditions: all
# [8] = FAERS 2013 Q1-2020 Q4
# participants with NAFLD = assay type: in vivo, human
# human β-cells = assay type: cell-based
# [9] = system: people with type 2 diabetes; assay type: in vivo, human; conditions: for achieved HbA1c: 16 weeks, pioglitazone 30mg, sitagliptin 100mg, canagliflozin 100mg
# db/db mice retinas = assay type: in vivo, mouse
# [10] = system: wounds of streptozotocin-diabetic C57BL/6 mice; assay type: in vivo, mouse
# C57BL/6J mice = assay type: in vivo, mouse
# HFD/STZ C57Bl/6 mice = assay type: in vivo, mouse
# [11] = system: βV59M diabetic mouse islets; assay type: cell-based; conditions: diabetic islets + 10μM, 48 hours; n=7-8
# [12] = system: youth with type 2 diabetes; assay type: in vivo, human
# [13] = system: patients with obesity and T2D; assay type: in vivo, human
# EndoC-βH1 cells = assay type: cell-based, human; conditions: 100 nM
# [14] = 10 mg once daily, LS mean (95% CI)
# [15] = before RYGB, GIP […], GLP-1 1 pmol/kg/min, ~15 mM glucose
compound,measurement,setting,value
3-hydroxybutyrate [3-OHB],blood D-3-OHB concentration during infusion,"[1]; CTR, from 0.2±0.03",1.0 ± 0.1 mmol/L
same,circulating FFA concentration after infusion,"[1]; CTR, from 0.48±0.09",0.21 ± 0.04 mmol/L
same,blood D-3-OHB concentration during infusion,"[1]; T1DM, from 0.2±0.06",1.2 ± 0.12 mmol/L
same,circulating FFA concentration after infusion,"[1]; T1DM, from 0.68±0.12",0.15 ± 0.03 mmol/L
"O=C1CCc2ccc(OCCCCN3CCN(c4cccc(Cl)c4Cl)CC3)cc2N1 [ARI, aripiprazole]",reduction of basal and insulin-stimulated glucose uptake,[2],≤ 70%
same,reduction of preadipocyte differentiation rate,"[2]; supra-therapeutic concentrations, 14 days",≤ 80%
"OC[C@H]1O[C@@H](c2ccc(F)c(Cc3cc4ccccc4s3)c2)[C@H](O)[C@@H](O)[C@@H]1O [Ipr, ipragliflozin]",change in visceral fat area,[3],-17.8%
"CCC(CCC(C)O)COC(=O)c1ccccc1C(=O)O (centres unmarked) [MEHHP, mono(2-ethyl-5-hydroxyhexyl) phthalate]",OR for NAFLD per unit increase of urinary concentration,[4],1.01
"CCC(CCC(C)=O)COC(=O)c1ccccc1C(=O)O (centres unmarked) [MEOHP, mono(2-ethyl-5-oxohexyl) phthalate]",OR for NAFLD per unit increase of urinary concentration,[4],1.01
"Cc1cc2c(s1)Nc1ccccc1N=C2N1CCN(C)CC1 [OLA, olanzapine]",adipogenesis or lipid and glucose metabolism,[2]; 0.2 and 2 μM during differentiation,did not affect
same,increase in LEP expression,[2]; present during differentiation,~ 2 fold
Cc1cnc(C(=O)O)c[n+]1[O-] [acipimox],reduction of FFAs,"patients with T2D; acute, at all visits",~ 35%
same,change in LVEF with acipimox,patients with T2D; during empagliflozin treatment,-6±2%
same,change in LVEF with acipimox,patients with T2D; during insulin treatment,-5.4±1%
CNC[C@H](O)c1ccc(O)c(O)c1 [adrenaline],change in K+-stimulated exocytosis,human delta cells,+56%
same,change in K+-stimulated exocytosis vs diazoxide only,human delta cells,-59%
N=C(N)NCCC[C@H](N)C(=O)O [arginine],Ins2 gene activity state,[5],inducing transitions from Ins2^GFP(low) states to Ins2^GFP(high) states
CCOc1ccc(Cc2cc([C@@H]3O[C@H](CO)[C@@H](O)[C@H](O)[C@H]3O)ccc2Cl)cc1 [dapagliflozin],urinary glucose excretion,[6]; 10mg/day,36 gram/24-hour
same,24-hour RER,"[6]; 10mg/day, whole-room indirect calorimetry",0.814 ± 0.006
same,coupled mitochondrial respiration on lipid-derived substrates (O2-flux),[6]; ex vivo skeletal muscle,68.2 ± 3.2 pmol/mg/s
same,EGP after drug,T2DM and NGT subjects; NGT,2.1±0.16
same,increase in renal glucose production (RGP),T2DM and NGT subjects; NGT,0.032 mg/kg.min
same,EGP after drug,T2DM and NGT subjects; T2DM,2.43±0.15
same,increase in renal glucose production (RGP),T2DM and NGT subjects; T2DM,0.065 mg/kg.min
same,increase in total body EGP,T2DM and NGT subjects; in vivo,0.45 mg/kg.min
same,PCr recovery rate,[7]; [14],23.1 (20.7-25.5) s
same,acetylcarnitine levels in muscle,[7]; [14],114.56 (91.16-137.95) pmoles*mg tissue^-1
same,lipid droplet size,[7]; [14],0.28 (0.20-0.36) μm^2
same,mitochondrial network integrity,[7]; [14],1.73 (1.33-2.12)
same,mitochondrial-LD interaction,[7]; [14],12.51 (9.70-15.32) %
same,CPT1A gene expression increase,[7]; muscle biopsy,1.33 fold
same,CPT1B gene expression increase,[7]; muscle biopsy,1.13 fold
C=C[C@@]1(C)CC(=O)[C@]2(O)[C@@]3(C)[C@@H](O)CCC(C)(C)[C@@H]3[C@H](O)[C@H](OC(C)=O)[C@@]2(C)O1 [forskolin],change in K+-stimulated exocytosis vs diazoxide only,human delta cells,+68%
COc1ccc(Cl)cc1C(=O)NCCc1ccc(S(=O)(=O)NC(=O)NC2CCCCC2)cc1 [glibenclamide],incidence of severe hypoglycaemia,patients with T2DM,1.3 % per year
CCCCCCCCCCCCCCCC(=O)N[C@@H](CCC(=O)NCCCC[C@H](NC(=O)[C@H](C)NC(=O)[C@H](C)NC(=O)[C@H](CCC(N)=O)NC(=O)CNC(=O)[C@H](CCC(=O)O)NC(=O)[C@H](CC(C)C)NC(=O)[C@H](Cc1ccc(O)cc1)NC(=O)[C@H](CO)NC(=O)[C@H](CO)NC(=O)[C@@H](NC(=O)[C@H](CC(=O)O)NC(=O)[C@H](CO)NC(=O)[C@@H](NC(=O)[C@H](Cc1ccccc1)NC(=O)[C@@H](NC(=O)CNC(=O)[C@H](CCC(=O)O)NC(=O)[C@H](C)NC(=O)[C@@H](N)Cc1cnc[nH]1)[C@@H](C)O)[C@@H](C)O)C(C)C)C(=O)N[C@@H](CCC(=O)O)C(=O)N[C@@H](Cc1ccccc1)C(=O)N[C@H](C(=O)N[C@@H](C)C(=O)N[C@@H](Cc1c[nH]c2ccccc12)C(=O)N[C@@H](CC(C)C)C(=O)N[C@H](C(=O)N[C@@H](CCCNC(=N)N)C(=O)NCC(=O)N[C@@H](CCCNC(=N)N)C(=O)NCC(=O)O)C(C)C)[C@@H](C)CC)C(=O)O [liraglutide],PRR for gallbladder or biliary diseases,[8],5.001
"CC(C)c1nc(N(C)S(C)(=O)=O)nc(-c2ccc(F)cc2)c1/C=C/[C@@H](O)C[C@@H](O)CC(=O)O [monotherapy, rosuvastatin]",MRI-PDFF at study completion,"participants with NAFLD; baseline 18.1 (combination), 15.0 (monotherapy)",12.4%
same,CAP by transient elastography at completion,"participants with NAFLD; baseline 321 (combination), 323 (monotherapy)",311 dB/m
NC(=O)N1c2ccccc2CC(=O)c2ccccc21 [oxcarbazepine],cytokine- and ER stress-induced β-cell death,human β-cells,protected
CCc1ccc(CCOc2ccc(CC3SC(=O)NC3=O)cc2)nc1 (centres unmarked) [pioglitazone],achieved HbA1c,[9],59.5 mmol/mol
same,weight on therapy higher than other drugs,[9]; [95%CI],"2.6 [2.3, 2.9] kg"
CC[C@H](C)[C@H](NC(=O)[C@H](Cc1ccccc1)NC(=O)[C@H](CCC(=O)O)NC(=O)[C@H](CCCCNC(=O)COCCOCCNC(=O)COCCOCCNC(=O)CC[C@H](NC(=O)CCCCCCCCCCCCCCCCC(=O)O)C(=O)O)NC(=O)[C@H](C)NC(=O)[C@H](C)NC(=O)[C@H](CCC(N)=O)NC(=O)CNC(=O)[C@H](CCC(=O)O)NC(=O)[C@H](CC(C)C)NC(=O)[C@H](Cc1ccc(O)cc1)NC(=O)[C@H](CO)NC(=O)[C@H](CO)NC(=O)[C@@H](NC(=O)[C@H](CC(=O)O)NC(=O)[C@H](CO)NC(=O)[C@@H](NC(=O)[C@H](Cc1ccccc1)NC(=O)[C@@H](NC(=O)CNC(=O)[C@H](CCC(=O)O)NC(=O)C(C)(C)NC(=O)[C@@H](N)Cc1cnc[nH]1)[C@@H](C)O)[C@@H](C)O)C(C)C)C(=O)N[C@@H](C)C(=O)N[C@@H](Cc1c[nH]c2ccccc12)C(=O)N[C@@H](CC(C)C)C(=O)N[C@H](C(=O)N[C@@H](CCCNC(=N)N)C(=O)NCC(=O)N[C@@H](CCCNC(=N)N)C(=O)NCC(=O)O)C(C)C [semaglutide],PRR for gallbladder or biliary diseases,[8],6.267
N[C@@H](CC(=O)N1CCn2c(nnc2C(F)(F)F)C1)Cc1cc(F)c(F)cc1F [sitagliptin],achieved HbA1c,[9],59.9 mmol/mol
same,diabetes-induced down-regulation of presynaptic proteins,"db/db mice retinas; eye drops 5 μL/eye, 10 mg/mL, twice per day, 2 weeks",inhibits this diabetes-induced down-regulation
same,blood glucose levels,db/db mice retinas; topical,without any effect
CCCC(=O)O [sodium butyrate],Ins2 gene activity state,[5],inducing transitions from Ins2^GFP(low) states to Ins2^GFP(high) states
Bone morphogenetic protein-7 [BMP7],acceleration of wound closure,"[10]; 0.5 μg per wound/day topical, vs vehicle",20%
same,number of lymphocytes in diabetic wounds,"[10]; mouse, in vivo",did not change
same,collagen deposition higher,[10]; vs vehicle-treated wounds,35%
same,increase in area of granulation tissue,[10]; vs vehicle-treated wounds,50%
same,reduction in number of macrophages,[10]; vs vehicle-treated wounds,30%
GABA,change in K+-stimulated exocytosis vs diazoxide only,human delta cells,+66%
Irisin,final body weight,"C57BL/6J mice; 0.5 μg/g i.p., 4 weeks, HFD 49.67 ± 1.48",44.87 ± 1.42 g
same,fat mass,C57BL/6J mice; HFD 14.56 ± 0.43,11.75 ± 0.78 g
same,fat/weight,C57BL/6J mice; HFD 29.37 ± 0.75,26.08 ± 1.09%
same,change in body weight vs HFD/STZ,"HFD/STZ C57Bl/6 mice; 0.5 μg/g, 14 days",-13%
same,change in glycemia vs HFD/STZ,"HFD/STZ C57Bl/6 mice; 0.5 μg/g, 14 days, n=4",-31%
same,change in GSIS AUC vs HFD/STZ,"HFD/STZ C57Bl/6 mice; mouse, in vivo",+23%
same,change in alpha-cell area vs HFD/STZ,"HFD/STZ C57Bl/6 mice; mouse, in vivo",-49%
same,change in beta-cell area vs HFD/STZ,"HFD/STZ C57Bl/6 mice; mouse, in vivo",+34%
same,change in insulin content vs HFD/STZ,"HFD/STZ C57Bl/6 mice; mouse, in vivo",+36%
same,change in islets volume vs HFD/STZ,"HFD/STZ C57Bl/6 mice; mouse, in vivo",+61%
same,increase in beta-cell proliferation rate,HFD/STZ C57Bl/6 mice; vs SD and HFD/STZ,9 fold
PF-4708671 [S6Ki],glucose-stimulated increase in OCR above baseline,[11],203.94±39.24%
same,oligomycin-induced decrease in OCR,[11],240.32±9.71%
dehydroaripiprazole [DARI],reduction of basal and insulin-stimulated glucose uptake,[2],≤ 70%
dulaglutide,BMI change,[12]; 26 weeks,No effect
same,incidence of diarrhoea,[12]; pooled doses,18.4%
same,incidence of nausea,[12]; pooled doses,14.6%
same,incidence of vomiting,[12]; pooled doses,15.5%
same,patients requiring rescue therapy,"[12]; pooled doses 0.75 and 1.5 mg, 26 weeks",2.9%
glucagon-like peptide-1 [GLP-1],augmentation of second phase insulin secretion vs saline-clamp,[13]; 3 months after RYGB,+233±32%
same,augmentation of second phase insulin secretion vs saline-clamp,[13]; [15],+399±84%
same,Ins2 gene activity state,[5],inducing transitions from Ins2^GFP(low) states to Ins2^GFP(high) states
glucose-dependent insulinotropic peptide [GIP],augmentation of second phase insulin secretion vs saline-clamp,[13]; 3 months after RYGB,+90±14%
same,augmentation of second phase insulin secretion vs saline-clamp,[13]; [15],+96±16%
insulin-like growth factor binding protein 7 [IGFBP7],insulin secretion normalised to total insulin,"EndoC-βH1 cells; 72 h, CTRL 5.2, n=4",4.0 %/h
same,C-peptide secretion at 20 mM glucose,"EndoC-βH1 cells; acute, CTRL 111, n=5",90 ng/mg prot/h

# Source: PMC9362525 (Diabetologia, 2022)
